Test [1] addresses Casein kinase I isoform gamma-1 (Homo sapiens) (UniProt Q9HCP0).
Test [2] addresses Mitogen-activated protein kinase 3 (Homo sapiens, UniProt P27361).
Test [3] concerns the target Serine/threonine-protein kinase PAK 6 (Homo sapiens) (UniProt Q9NQU5).
The target in test [4] is Calcium/calmodulin-dependent protein kinase type II subunit alpha (Homo sapiens) (UniProt Q9UQM7).
Test [5] deals with Cyclin-dependent kinase 16 (Homo sapiens) (UniProt Q00536).
Test [6] deals with Serine/threonine-protein kinase pim-2 (Homo sapiens, UniProt Q9P1W9).
Test [7] concerns the target Dual specificity protein kinase CLK3 (Homo sapiens) (UniProt P49761).
For test [8], the target named is Calcium/calmodulin-dependent protein kinase type II subunit gamma (Homo sapiens) (UniProt Q13555).
Test [9] deals with STE20-like serine/threonine-protein kinase (Homo sapiens) (UniProt Q9H2G2).
The target in test [10] is T1, Calcium/calmodulin-dependent protein kinase type IV (Homo sapiens) (UniProt Q16566).
T1 sequence (whole entry): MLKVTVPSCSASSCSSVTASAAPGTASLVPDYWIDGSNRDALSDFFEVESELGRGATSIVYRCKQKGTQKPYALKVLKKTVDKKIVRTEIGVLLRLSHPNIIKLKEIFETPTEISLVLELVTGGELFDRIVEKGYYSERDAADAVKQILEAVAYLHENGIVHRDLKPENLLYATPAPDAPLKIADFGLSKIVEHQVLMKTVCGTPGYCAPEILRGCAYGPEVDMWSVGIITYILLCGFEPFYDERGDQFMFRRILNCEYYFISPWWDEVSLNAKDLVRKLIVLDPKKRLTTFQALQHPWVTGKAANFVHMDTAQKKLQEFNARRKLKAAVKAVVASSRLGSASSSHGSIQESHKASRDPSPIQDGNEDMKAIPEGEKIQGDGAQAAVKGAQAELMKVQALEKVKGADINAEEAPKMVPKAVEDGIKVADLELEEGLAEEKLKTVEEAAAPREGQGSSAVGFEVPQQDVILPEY

Test [11] deals with Tyrosine-protein kinase JAK1 (Homo sapiens) (UniProt P23458).
Test [12] deals with Mitogen-activated protein kinase 6 (Homo sapiens) (UniProt Q16659).
Test [13] addresses Cyclin-dependent kinase-like 1 (Homo sapiens) (UniProt Q00532).
The target of test [14] is Serine/threonine-protein kinase pim-1 (Homo sapiens) (UniProt P11309).
In test [15] the target is Serine/threonine-protein kinase pim-3 (Homo sapiens) (UniProt Q86V86).
The target of test [16] is Mitogen-activated protein kinase 11 (Homo sapiens, UniProt Q15759).
Test [17] has as its target Death-associated protein kinase 3 (Homo sapiens) (UniProt O43293).
Test [18] addresses Serine/threonine-protein kinase PLK1 (Homo sapiens) (UniProt P53350).
Test [19] has as its target Serine/threonine-protein kinase 38 (Homo sapiens) (UniProt Q15208).
The target in test [20] is cAMP-dependent protein kinase catalytic subunit alpha (Homo sapiens) (UniProt P17612).
Test [21] has as its target Serine/threonine-protein kinase VRK2 (Homo sapiens) (UniProt Q86Y07).

Experimental findings from ChEMBL document CHEMBL1145498, “A systematic interaction map of validated kinase inhibitors with Ser/Thr kinases” (Proc Natl Acad Sci U S A, 2007) are described below.

Dual specificity protein kinase CLK3 (Homo sapiens), sequence (P49761 whole entry, looked up): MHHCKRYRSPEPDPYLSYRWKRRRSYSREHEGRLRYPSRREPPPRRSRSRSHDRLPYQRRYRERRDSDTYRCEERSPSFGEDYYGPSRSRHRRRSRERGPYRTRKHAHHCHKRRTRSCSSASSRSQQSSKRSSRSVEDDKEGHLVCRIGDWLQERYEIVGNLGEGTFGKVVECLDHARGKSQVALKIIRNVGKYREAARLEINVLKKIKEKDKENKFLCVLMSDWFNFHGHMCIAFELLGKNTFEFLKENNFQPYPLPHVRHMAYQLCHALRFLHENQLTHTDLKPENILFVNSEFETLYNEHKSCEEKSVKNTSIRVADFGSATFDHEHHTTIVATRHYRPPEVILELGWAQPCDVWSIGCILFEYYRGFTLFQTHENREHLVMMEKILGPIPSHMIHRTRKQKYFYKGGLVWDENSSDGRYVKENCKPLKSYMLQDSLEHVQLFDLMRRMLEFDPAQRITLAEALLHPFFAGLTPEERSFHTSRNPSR
Serine/threonine-protein kinase VRK2 (Homo sapiens), sequence (Q86Y07 whole entry): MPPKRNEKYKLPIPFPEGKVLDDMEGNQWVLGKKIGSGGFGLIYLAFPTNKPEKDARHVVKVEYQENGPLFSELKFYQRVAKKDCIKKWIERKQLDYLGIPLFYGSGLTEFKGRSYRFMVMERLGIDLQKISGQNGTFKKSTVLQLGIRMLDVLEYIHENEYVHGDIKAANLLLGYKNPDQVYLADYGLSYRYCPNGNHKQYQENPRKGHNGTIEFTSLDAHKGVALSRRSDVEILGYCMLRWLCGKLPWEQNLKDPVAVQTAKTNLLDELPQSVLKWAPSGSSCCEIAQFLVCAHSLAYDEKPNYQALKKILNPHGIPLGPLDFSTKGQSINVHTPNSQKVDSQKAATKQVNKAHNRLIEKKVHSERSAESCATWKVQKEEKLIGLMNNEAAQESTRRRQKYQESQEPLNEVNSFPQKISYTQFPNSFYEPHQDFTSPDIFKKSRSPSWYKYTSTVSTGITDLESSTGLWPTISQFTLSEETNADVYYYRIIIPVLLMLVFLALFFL
Serine/threonine-protein kinase PAK 6 (Homo sapiens), sequence (Q9NQU5 whole entry, looked up): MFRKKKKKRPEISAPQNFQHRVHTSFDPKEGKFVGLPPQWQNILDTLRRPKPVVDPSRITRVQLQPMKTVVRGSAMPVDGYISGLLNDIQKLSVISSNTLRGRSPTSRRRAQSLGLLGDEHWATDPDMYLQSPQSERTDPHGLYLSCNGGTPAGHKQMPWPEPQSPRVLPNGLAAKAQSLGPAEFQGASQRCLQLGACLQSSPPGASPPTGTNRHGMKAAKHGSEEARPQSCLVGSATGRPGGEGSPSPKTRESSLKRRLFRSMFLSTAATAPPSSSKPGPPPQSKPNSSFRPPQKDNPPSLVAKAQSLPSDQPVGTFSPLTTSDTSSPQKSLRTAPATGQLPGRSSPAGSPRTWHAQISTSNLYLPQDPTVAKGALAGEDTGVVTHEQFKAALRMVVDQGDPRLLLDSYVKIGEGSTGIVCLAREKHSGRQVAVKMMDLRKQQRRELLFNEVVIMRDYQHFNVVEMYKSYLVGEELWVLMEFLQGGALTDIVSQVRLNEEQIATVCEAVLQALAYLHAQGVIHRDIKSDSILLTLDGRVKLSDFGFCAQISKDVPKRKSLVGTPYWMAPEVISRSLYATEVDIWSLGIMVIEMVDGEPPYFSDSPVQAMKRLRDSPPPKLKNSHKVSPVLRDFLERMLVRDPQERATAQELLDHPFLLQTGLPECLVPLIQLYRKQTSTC
Cyclin-dependent kinase-like 1 (Homo sapiens), sequence (Q00532 whole entry): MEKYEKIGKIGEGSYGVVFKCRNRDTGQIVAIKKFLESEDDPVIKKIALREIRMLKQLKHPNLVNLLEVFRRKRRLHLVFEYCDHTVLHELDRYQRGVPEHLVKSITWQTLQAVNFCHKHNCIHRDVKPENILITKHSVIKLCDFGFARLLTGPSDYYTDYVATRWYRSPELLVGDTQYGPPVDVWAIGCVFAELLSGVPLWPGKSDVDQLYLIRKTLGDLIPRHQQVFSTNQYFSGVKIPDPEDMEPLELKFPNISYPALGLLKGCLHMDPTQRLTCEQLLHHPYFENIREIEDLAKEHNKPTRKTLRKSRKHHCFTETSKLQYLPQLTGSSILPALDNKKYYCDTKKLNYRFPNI
STE20-like serine/threonine-protein kinase (Homo sapiens), sequence (Q9H2G2 whole entry, looked up): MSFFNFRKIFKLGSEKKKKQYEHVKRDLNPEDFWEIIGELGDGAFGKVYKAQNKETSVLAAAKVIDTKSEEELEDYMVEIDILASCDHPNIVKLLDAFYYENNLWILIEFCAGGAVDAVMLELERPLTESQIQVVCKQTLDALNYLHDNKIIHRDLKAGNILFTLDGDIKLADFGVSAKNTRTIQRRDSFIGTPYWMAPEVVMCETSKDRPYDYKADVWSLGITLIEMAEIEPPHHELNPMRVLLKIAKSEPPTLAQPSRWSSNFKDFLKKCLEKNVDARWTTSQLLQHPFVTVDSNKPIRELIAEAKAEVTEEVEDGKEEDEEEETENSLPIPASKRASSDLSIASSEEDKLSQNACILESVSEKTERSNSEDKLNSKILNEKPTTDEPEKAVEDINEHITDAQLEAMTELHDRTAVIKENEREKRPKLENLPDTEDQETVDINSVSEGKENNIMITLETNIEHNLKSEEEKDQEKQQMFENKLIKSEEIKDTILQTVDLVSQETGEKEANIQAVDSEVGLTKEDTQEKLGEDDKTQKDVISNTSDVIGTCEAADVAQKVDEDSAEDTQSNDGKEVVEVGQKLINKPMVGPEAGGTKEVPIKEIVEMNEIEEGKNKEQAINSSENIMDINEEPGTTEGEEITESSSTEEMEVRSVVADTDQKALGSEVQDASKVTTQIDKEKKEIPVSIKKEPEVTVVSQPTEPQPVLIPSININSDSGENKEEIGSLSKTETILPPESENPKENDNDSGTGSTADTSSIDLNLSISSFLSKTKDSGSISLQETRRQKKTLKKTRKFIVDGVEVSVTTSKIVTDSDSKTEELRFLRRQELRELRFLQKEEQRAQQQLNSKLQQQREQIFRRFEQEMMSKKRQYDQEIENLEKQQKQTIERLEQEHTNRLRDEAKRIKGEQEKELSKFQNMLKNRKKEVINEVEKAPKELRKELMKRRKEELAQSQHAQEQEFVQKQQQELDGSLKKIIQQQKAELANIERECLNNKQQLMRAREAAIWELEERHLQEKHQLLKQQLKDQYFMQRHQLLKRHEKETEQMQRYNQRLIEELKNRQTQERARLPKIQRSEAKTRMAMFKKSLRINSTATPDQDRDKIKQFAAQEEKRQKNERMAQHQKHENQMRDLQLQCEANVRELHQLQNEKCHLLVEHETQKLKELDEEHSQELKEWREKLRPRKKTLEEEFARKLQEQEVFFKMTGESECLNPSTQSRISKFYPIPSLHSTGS
Mitogen-activated protein kinase 6 (Homo sapiens), sequence (Q16659 whole entry): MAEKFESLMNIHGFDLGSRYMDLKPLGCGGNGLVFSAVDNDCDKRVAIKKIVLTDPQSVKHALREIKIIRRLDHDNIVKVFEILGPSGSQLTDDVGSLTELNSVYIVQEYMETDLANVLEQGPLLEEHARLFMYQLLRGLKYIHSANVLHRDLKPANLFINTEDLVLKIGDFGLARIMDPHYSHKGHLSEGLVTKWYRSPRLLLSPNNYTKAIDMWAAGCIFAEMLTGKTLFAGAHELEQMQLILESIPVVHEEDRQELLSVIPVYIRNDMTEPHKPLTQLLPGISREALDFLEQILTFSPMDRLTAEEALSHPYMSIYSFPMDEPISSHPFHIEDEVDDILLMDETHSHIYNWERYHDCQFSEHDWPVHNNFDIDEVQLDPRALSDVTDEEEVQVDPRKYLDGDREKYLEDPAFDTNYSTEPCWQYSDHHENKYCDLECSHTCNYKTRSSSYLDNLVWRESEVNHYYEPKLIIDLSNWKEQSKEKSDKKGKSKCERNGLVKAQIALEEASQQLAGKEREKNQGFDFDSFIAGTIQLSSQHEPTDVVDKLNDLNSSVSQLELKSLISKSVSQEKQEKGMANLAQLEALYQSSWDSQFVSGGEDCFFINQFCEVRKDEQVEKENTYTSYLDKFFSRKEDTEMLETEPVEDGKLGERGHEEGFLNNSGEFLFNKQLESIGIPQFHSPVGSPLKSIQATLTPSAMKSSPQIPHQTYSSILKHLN
Cyclin-dependent kinase 16 (Homo sapiens), sequence (Q00536 whole entry): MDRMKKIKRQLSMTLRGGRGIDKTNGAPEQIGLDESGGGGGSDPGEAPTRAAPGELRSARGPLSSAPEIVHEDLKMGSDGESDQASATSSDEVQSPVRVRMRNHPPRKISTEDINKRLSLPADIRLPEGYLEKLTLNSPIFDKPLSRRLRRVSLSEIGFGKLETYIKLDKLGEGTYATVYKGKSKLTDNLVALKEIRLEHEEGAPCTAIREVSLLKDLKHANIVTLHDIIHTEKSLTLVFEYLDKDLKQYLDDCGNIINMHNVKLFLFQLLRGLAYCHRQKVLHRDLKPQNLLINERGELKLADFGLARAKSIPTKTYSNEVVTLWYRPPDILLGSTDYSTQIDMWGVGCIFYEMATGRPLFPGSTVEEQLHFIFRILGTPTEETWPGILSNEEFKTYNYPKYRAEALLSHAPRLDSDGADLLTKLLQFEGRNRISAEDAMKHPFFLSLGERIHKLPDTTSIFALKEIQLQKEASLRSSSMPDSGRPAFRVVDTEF

Take `COc1ccc(COc2ccc(Cc3cnc(N)nc3N)cc2OC)cc1`: the ΔTm in test [1] is 0.7 °C; in [2], 0.3 °C; in test [3], 0.1 °C; in test [4], -0.1 °C; in test [5], 0.1 °C; in test [6] it was 0.2 °C. The ΔTm in test [7] is 0.1 °C; in test [8], 0.2 °C; in [9] it was 0.1 °C; in test [10], 0 °C; in [11] it was 0.3 °C; in test [12], 1.5 °C. Moreover, the ΔTm was -0.2 °C in test [13]; 0 °C in test [14]; 0 °C in [15]; -0.1 °C in [16]; 0.3 °C in test [17]; -1 °C in [18]. Besides, the results for the ΔTm in test [19] and in test [20] were 0.1 °C and -0.2 °C, respectively.

In the case of `COc1cc2ncnc(Nc3cccc(O)c3)c2cc1OC`, the ΔTm in test [1] was 1.3 °C; in test [2] it was -0.2 °C; in test [4], 0 °C; in test [5] it was -0.6 °C; in test [6] it was 0.6 °C; in [7], 0.5 °C. In addition, the ΔTm is 0.5 °C in [8]; 3.2 °C in test [9]; 0 °C in test [10]; 2.1 °C in test [11]; 0.1 °C in test [12]; -0.2 °C in [13]. Further, the ΔTm in [21] worked out at 0.9 °C; in [14] it was 0 °C; in [15], 2 °C; in test [16], 0.8 °C; in test [17] it was 1.7 °C; in test [18] it was 1 °C. Further, the figures for the ΔTm in [19] and in test [20] were 0.4 °C and 0.1 °C, respectively.

As to `Cc1ccc(NC(=O)c2ccc(CN3CCN(C)CC3)cc2)cc1Nc1nccc(-c2cccnc2)n1`, the ΔTm in test [1] is 0.5 °C; in [2], 0.6 °C; in test [3], 4.1 °C; in [4], 0.2 °C; in [5], -0.4 °C; in [6] it was 0.6 °C. The ΔTm in test [8] was 0.8 °C; in test [9] it was 1.7 °C; in [10] it was -0.5 °C; in test [11], 0.1 °C; in [12], 0.5 °C; in [13], 0.3 °C. The ΔTm in test [21] is 0.5 °C; in test [14], -0.1 °C; in test [15], 0.2 °C; in [16] it was -0.5 °C; in test [17], 2.8 °C; in test [18], 1.6 °C. Also, the ΔTm in test [19] was 0.7 °C; in [20], 0.8 °C.

On to `Cc1nc(Nc2ncc(C(=O)Nc3c(C)cccc3Cl)s2)cc(N2CCN(CCO)CC2)n1`, for which the shift in melting temperature (ΔTm) in test [1] is 0.3 °C; in test [2], 0 °C; in test [3], 2.1 °C; in [4], 0 °C; in [5] it was -0.4 °C; in test [6] it was 0 °C. Also, the ΔTm in test [7] is 4.1 °C; in [8], -0.3 °C; in test [10], 0.2 °C; in [11] it was 3.8 °C; in test [12], 0.9 °C; in test [13], 0.6 °C. Further, the ΔTm in [14] was 0.3 °C; in test [15] it was -0.2 °C; in test [16] it was 0.4 °C; in [17] it was 0 °C; in test [18], 2.4 °C; in [20] it was 0.4 °C.

Take `Nc1nc(Nc2ccc(S(N)(=O)=O)cc2)nn1C(=S)Nc1c(F)cccc1F`: the ΔTm is 3.6 °C in test [2]; 5.6 °C in test [3]; 3.3 °C in test [4]; 10 °C in [5]; 0.6 °C in test [6]; 14.7 °C in [7]. For the same compound, the ΔTm was 4.2 °C in test [8]; 12.1 °C in test [9]; -0.2 °C in [10]; 10.4 °C in [11]; 2.1 °C in test [12]; 4.3 °C in [13]. Further, the ΔTm in test [21] was 2 °C; in test [14], 0.4 °C; in test [15], 1.9 °C; in test [16] it was 1.9 °C; in [17] it was 3 °C; in test [18], 4.3 °C. Moreover, the ΔTm amounted to 6.4 °C in test [19] and 4.1 °C in [20].

Consider `CN[C@@H]1CC2O[C@@](C)([C@@H]1OC)n1c3ccccc3c3c4c(c5c6ccccc6n2c5c31)C(=O)NC4`, for which the ΔTm in [1] worked out at 1.9 °C; in [2], 1.3 °C; in test [3], 16.8 °C; in [4], 16.3 °C; in [7], 4.2 °C; in [8] it was 14.6 °C. The thermal shift (ΔTm) in test [9] stood at 20.1 °C; in [11], 1.9 °C; in test [12], 1 °C; in [13] it was 6.6 °C; in test [21], 2 °C; in test [15], 17.7 °C. The ΔTm in [16] came to 0.5 °C; in test [17], 13 °C; in test [19], 5.7 °C; in test [20] it was 11.3 °C.

For `CCN(CC)CCNC(=O)c1c(C)[nH]c(/C=C2\C(=O)Nc3ccc(F)cc32)c1C`, the ΔTm in test [2] amounted to 0.9 °C; in test [3] it was 3.5 °C; in test [4], 5 °C; in test [6], 0 °C; in [7] it was 2.1 °C; in [8], 5.2 °C. The shift in melting temperature (ΔTm) in test [9] came to 6.5 °C; in [10], 6 °C; in [11], 5.5 °C; in test [13], 0.5 °C; in test [14], 2.3 °C; in [15] it was 7.1 °C. The ΔTm came to 0.1 °C in [16]; 0.3 °C in test [17]; 1.5 °C in [18]; 5.6 °C in [19]; 9.2 °C in test [20].

On to `Nc1n[nH]c2nnc(-c3c(-c4ccccc4)nn4ccccc34)cc12`, for which the ΔTm was 0.9 °C in [1]; 0.4 °C in test [2]; 0.1 °C in [3]; -0.4 °C in [4]; 0.2 °C in test [5]; 0.6 °C in test [6]. For the same compound, the ΔTm was 0.3 °C in [7]; -0.1 °C in [8]; 0.7 °C in [9]; 0.7 °C in test [10]; 0.3 °C in test [11]; 1.3 °C in test [12]. The ΔTm in test [13] is 0.2 °C; in test [14], 1.1 °C; in test [15], 1.2 °C; in test [16] it was 4.5 °C; in test [17] it was 3.9 °C; in test [18], -0.3 °C. Also, the figures for the ΔTm in test [19] and in test [20] were 1.9 °C and 0.3 °C, respectively.

On to `Cn1cc(/C=C2/C(=O)Nc3ccc(S(N)(=O)=O)cc32)c2ccccc21`, for which the ΔTm is -0.9 °C in [1]; 1.2 °C in test [2]; -0.6 °C in test [3]; 2.7 °C in test [4]; 1.9 °C in [5]; 8.2 °C in test [6]. The ΔTm in [7] amounted to 3.2 °C; in [8], 0.5 °C; in test [9] it was 8.4 °C; in test [10], 1.1 °C; in test [11] it was 4.3 °C; in test [12], 5.5 °C. Further, the ΔTm in test [13] is 0.2 °C; in [14] it was 3.1 °C; in [15], 3.4 °C; in test [16], 0.2 °C; in test [17], 0.3 °C; in test [18], -0.7 °C. For the same compound, the ΔTm in test [19] was 3.6 °C; in test [20], 0.9 °C.

`Clc1ccc(Nc2nnc(Cc3ccncc3)c3ccccc23)cc1`: the ΔTm in test [1] was -0.2 °C; in test [2] it was 0 °C; in test [3], 0 °C; in test [4], 0.4 °C; in test [5], 0.2 °C; in [6], -0.3 °C. For the same compound, the ΔTm in [7] is 1.1 °C; in test [8] it was -0.4 °C; in test [10], 1.9 °C; in test [11] it was 1.3 °C; in test [12], 1.3 °C; in [13], 0.4 °C. For the same compound, the ΔTm in [14] is -0.2 °C; in [15] it was -0.4 °C; in test [16], 0.5 °C; in test [17], 0 °C; in test [18] it was 0 °C; in test [20], 0.2 °C.
